# Patent US20250338842A1, “NOVEL MIXTURES FOR CROP PROTECTION” (Adama Agan LTD., priority 2023, published 2025)
# Columns and labels:
# Format in all cases: in vivo
# [1] = system: CHEAL (Chenopodium album); test: Pot trial Flufenacet+Dimethenamid-p+Thiencarbazone, third trial, post-emergence; conditions: post-emergence (2-3 leaves), g a.i./ha: Flufenacet 75, TCM 18, DMTP 302
# Description: (§1) A synergistic effect exists whenever the action of an active ingredient combination is greater than the sum of the actions of the individual components. In the field of agriculture, it is often understood that the term “synergy” is as defined by Colby S. R. in an article entitled “Calculation of the synergistic and antagonistic responses of herbicide combinations” published in the journal Weeds, 1967, 15, p. 20-22. The action expected for a given combination of two active components can be calculated according to Colby as follows: […]
# (§2) in which E represents the expected effect, e.g. percentage of pest control, for the combination of the active ingredients at defined doses (for example equal to x and y respectively), A is the effect, e.g. percentage of pest control, observed for the first compound or mixture of compounds at a defined dose (equal to x), B is the effect, e.g. percentage of pest control, observed for the second compound or group of compounds at a defined dose (equal to y).
# (§3) Here, efficacy or percent inhibition is determined in %. 0% means efficacy that corresponds to the Control, i.e., as if no treatment had been applied. A percent inhibition of 100% means that complete control is observed. When the percent control observed for the combination (E0) is greater than E, there is a synergistic effect. […]
# [2] = system: AMARE (Amaranthus retroflexus); test: as above; conditions: post-emergence (2-3 leaves), g a.i./ha: Flufenacet 75, TCM 18, DMTP 302
# Description: as §1, §2, §3
# [3] = system: ECHCG (Echinochloa crus-galli); test: Pot trial Flufenacet+Dimethenamid-p+Mesotrione, post-emergence; conditions: post-emergence (2-3 leaves), g a.i./ha: Flufenacet 75, MST 60, DMTP 302
# Description: as §1, §2, §3
# [4] = system: AMARE (Amaranthus retroflexus); test: as above; conditions: post-emergence (2-3 leaves), g a.i./ha: Flufenacet 75, MST 60, DMTP 302
# Description: as §1, §2, §3
# [5] = system: ECHCG (Echinochloa crus-galli); test: Pot trial Flufenacet+Dimethenamid-p+Thiencarbazone, second trial, post-emergence; conditions: post-emergence (2-3 leaves), g a.i./ha: Flufenacet 12.2 (12.5 in mix), TCM 3, DMTP 50
# Description: as §1, §2, §3
# [6] = system: ECHCG (Echinochloa crus-galli); test: Pot trial Flufenacet+Dimethenamid-p+Thiencarbazone, first trial, pre-emergence; conditions: g a.i./ha: Flufenacet 12.2 (12.5 in mix), TCM 3, DMTP 50
# Description: as §1, §2, §3
# [7] = system: SETVE (Setaria verticillate); test: as above; conditions: g a.i./ha: Flufenacet 12.2 (12.5 in mix), TCM 3, DMTP 50
# Description: as §1, §2, §3
# SOLNI (Solanum nigrum) [8] = test: Pot trial Dimethenamid-P+Tembotrione+Pethoxamid (Example 6), post-emergence
# Description: as §1, §2, §3
# [9] = system: AMAPA (Amaranthus palmeri); test: Pot trial Dimethenamid-P+Pethoxamid+Mesotrione, third trial, pre-emergence; conditions: g a.i./ha: Petoxamid 360, MST 40, DMTP 200
# Description: as §1, §2, §3
# SETVI (Setaria viridis) [10] = test: Pot trial Dimethenamid-P+Thiencarbazone+Pethoxamid, post-emergence
# Description: as §1, §2
# (§4) Here, efficacy or percent inhibition is determined in %. 0% means efficacy that corresponds to the Control, i.e., as if no treatment had been applied. A percent inhibition of 100% means that complete control is observed. When the percent control observed for the combination (E0) is greater than E, there is a synergistic effect. When the percent control observed for the combination (E0) is equal to E, there is an additive effect and wherein the percent control observed for the combination (E0) is lower than E, there is an antagonistic effect.
# (§5) First trial: Tank mixes were prepared by combining the formulation with water in order to achieve the desired concentration of each active ingredient, as outlined in Table 19. For this study, individual pots were utilized for sowing the weeds, with each pot containing one weed species, in this case SOLNI (Solanum nigrum) or SETVI (Setaria viridis). Treatments were then applied to each pot at the post-emergence stage of the weeds, ensuring consistent application timing across all treatments. Subsequently, a comprehensive assessment was conducted seven days after application (7DAA) to evaluate the efficacy of each treatment on SOLNI or SETVI.
# as §5, with “Second” for “First”, “21.” for “19.”, “Subsequently, a comprehensive assessment was conducted seven days after application (7DAA) to evaluate the efficacy of each treatment on SOLNI or SETVI.” left out
# SOLNI (Solanum nigrum) [11] = test: as above
# Description: as §1, §2, §4, §5
# as §5, with “Second” for “First”, “21.” for “19.”, “Subsequently, a comprehensive assessment was conducted seven days after application (7DAA) to evaluate the efficacy of each treatment on SOLNI or SETVI.” left out
# [12] = system: AMAPA (Amaranthus palmeri); test: Pot trial Dimethenamid-P+Pethoxamid+Mesotrione, first and second trial, post-emergence
# Description: as §1, §2, §3
# SETVI (Setaria viridis) [13] = test: Pot trial Dimethenamid-P+Tembotrione+Pethoxamid (Example 7), post-emergence
# Description: as §1, §2, §3
# [14] = system: AMAPA (Amaranthus palmeri); test: Pot trial Dimethenamid-P+S-Metolachlor+Mesotrione, post-emergence
# Description: as §1, §2, §3
# [15] = second trial, g a.i./ha: PTX 720, TMB 63, DMTP 604.8
# [16] = first trial, g a.i./ha: PTX 360, TCM/DMTP 159 (one cell)
# [17] = second trial, g a.i./ha: PTX 720, TCM/DMTP 318 (one cell)
compound,measurement,setting,value
CC(C)N(C(=O)COc1nnc(C(F)(F)F)s1)c1ccc(F)cc1 [Flufenacet],efficacy 8DAA CHEAL %,[1],0%
same,efficacy 8DAA AMARE %,[2],0%
same,efficacy 8DAA ECHCG %,[3],0%
same,efficacy 8DAA AMARE %,[4],0%
same,efficacy 8DAA ECHCG %,[5],0%
same,efficacy 8DAA ECHCG %,[6],0%
same,efficacy 8DAA SETVE %,[7],0%
CCOCCN(C(=O)CCl)C(=C(C)C)c1ccccc1 [Pethoxamid],efficacy 7DAA SOLNI %,"SOLNI (Solanum nigrum) [8]; first trial, g a.i./ha: PTX 120, TMB 10.5, DMTP 100",0.00%
same,efficacy 7DAA SOLNI %,SOLNI (Solanum nigrum) [8]; [15],1.70%
same,efficacy 21DAA AMAPA %,[9],52.50%
same,efficacy 7DAA SETVI %,SETVI (Setaria viridis) [10]; [16],2.50%
same,efficacy 7DAA SETVI %,SETVI (Setaria viridis) [10]; [17],0.00%
same,efficacy 7DAA SOLNI %,SOLNI (Solanum nigrum) [11]; [16],0.00%
same,efficacy 7DAA SOLNI %,SOLNI (Solanum nigrum) [11]; [17],1.70%
same,efficacy 21DAA AMAPA %,"[12]; first trial, g a.i./ha: Petoxamid 720, MST 60, DMTP 300",6.25%
same,efficacy 21DAA AMAPA %,"[12]; second trial, g a.i./ha: Petoxamid 120, MST 20, DMTP 100",0%
same,efficacy 7DAA SETVI %,"SETVI (Setaria viridis) [13]; first trial, g a.i./ha: PTX 360, TMB 10.5, DMTP 100.8",2.50%
same,efficacy 7DAA SETVI %,SETVI (Setaria viridis) [13]; [15],0.00%
CCc1cccc(C)c1N(C(=O)CCl)[C@@H](C)COC [S-metolachlor],efficacy 18DAA AMAPA %,"[14]; first trial, g a.i./ha: S-MOc 144, MST 20, DMTP 100",0.00%
same,efficacy 18DAA AMAPA %,"[14]; second trial, g a.i./ha: S-MOc 288, MST 40, DMTP 200",0.00%
